Results taken from patent publication US8377943B2, “2,4-diaminopyrimidine derivates as PTK2-inhibitors for the treatment of abnormal cell growth” (Boehringer Ingelheim International GmbH, priority 2008, dated 2013).
pEC50, pIC50: −log10 of the molar value.

Key:
[1] = molecular target: T1, PTK2-phosphorylation at tyrosine 397 (pY397) (Homo sapiens, UniProt Q05397); assay: Phospho-PTK2 (pY397) Assay in PC-3 cells; assay type: cell-based; conditions: PC-3 prostate carcinoma cells, 2 h incubation; read-out: PC3pPTK2 Y397 EC50
T1 construct: endogenous in cells; host or cells: PC-3 (ATCC CRL-1435)
T1 sequence (Q05397 whole entry): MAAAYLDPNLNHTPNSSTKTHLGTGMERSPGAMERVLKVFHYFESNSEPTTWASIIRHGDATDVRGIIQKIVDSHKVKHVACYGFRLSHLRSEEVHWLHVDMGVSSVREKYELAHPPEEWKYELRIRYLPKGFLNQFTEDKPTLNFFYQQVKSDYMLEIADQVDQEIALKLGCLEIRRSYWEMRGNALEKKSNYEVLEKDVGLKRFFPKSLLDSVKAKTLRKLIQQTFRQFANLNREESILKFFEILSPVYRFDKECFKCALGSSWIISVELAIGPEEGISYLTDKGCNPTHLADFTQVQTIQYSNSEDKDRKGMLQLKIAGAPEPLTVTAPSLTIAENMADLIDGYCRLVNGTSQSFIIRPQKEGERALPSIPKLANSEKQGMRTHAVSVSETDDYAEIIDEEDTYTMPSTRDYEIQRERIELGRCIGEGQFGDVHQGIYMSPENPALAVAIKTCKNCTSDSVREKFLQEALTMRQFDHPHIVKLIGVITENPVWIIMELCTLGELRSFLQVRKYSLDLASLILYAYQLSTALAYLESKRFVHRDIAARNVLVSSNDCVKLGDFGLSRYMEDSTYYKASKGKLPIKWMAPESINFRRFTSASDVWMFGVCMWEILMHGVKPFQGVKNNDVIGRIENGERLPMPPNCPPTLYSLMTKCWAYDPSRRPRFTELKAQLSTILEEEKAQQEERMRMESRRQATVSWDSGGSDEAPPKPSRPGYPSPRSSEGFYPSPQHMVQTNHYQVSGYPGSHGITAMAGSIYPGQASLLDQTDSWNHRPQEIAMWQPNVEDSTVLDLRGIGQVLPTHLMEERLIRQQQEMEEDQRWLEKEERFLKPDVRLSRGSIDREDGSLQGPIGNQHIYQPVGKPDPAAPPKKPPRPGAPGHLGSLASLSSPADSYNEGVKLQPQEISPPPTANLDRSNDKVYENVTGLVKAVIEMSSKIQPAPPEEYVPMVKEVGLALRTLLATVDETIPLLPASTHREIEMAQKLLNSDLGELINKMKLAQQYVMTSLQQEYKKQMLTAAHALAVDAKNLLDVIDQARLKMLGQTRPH
Summary of the method: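 PC-3 cells (2×10^4/well, F12K + 10% FCS) exposed to compound (about 0.8 nM–50 μM, 1% DMSO final) for 2 h at 37 °C. Then formaldehyde-fixed and immunostained with anti-pY397 PTK2 (total PTK2 control) and an HRP secondary. EC50 from sigmoidal fit with variable Hill slope.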

[2] = molecular target: T2, PTK2 (Homo sapiens, UniProt Q05397); assay: PTK2 Enzyme Test (DELFIA assay, poly-Glu-Tyr substrate); assay type: biochemical; conditions: active PTK2 enzyme, 50 μM ATP in ATP Mix, 1 h pre-incubation
T2 construct: purchased Invitrogen PV3832
T2 sequence (Q05397 whole entry): as above
Summary of the method: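 Active PTK2 (0.01 μg/well) pre-incubated 1 h at RT with compound, then reacted 1 h with 50 μM ATP (in ATP mix) and poly(Glu,Tyr) 4:1 substrate, 2% DMSO final, pH 7.5. Biotinylated product captured on streptavidin, detected by Eu-PY20 time-resolved fluorescence; IC50 by sigmoidal fit, variable Hill slope.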

Structure (SMILES)	pEC50 [1]	pIC50 [2]
COc1cc(C(=O)N[C@H]2CC[C@H](N3C[C@@H](C)O[C@@H](C)C3)CC2)ccc1Nc1ncc(C(F)(F)F)c(NCc2ccc(C)cc2N(C)S(C)(=O)=O)n1 [Example 114]	8.52	8.40
COc1cc(C(=O)N[C@@H]2CCN(C)C2)c(Cl)cc1Nc1ncc(C(F)(F)F)c(NCc2ccc(C)cc2N(C)S(C)(=O)=O)n1 [Example 58]	9.23	8.52
COc1cc(CNC(C)C)ccc1Nc1ncc(C(F)(F)F)c(NCc2ccc(C)cc2N(C)S(C)(=O)=O)n1 [Example 89]	9.00	8.70
COc1cc(C(=O)N[C@H]2CC[C@H](N3CCN(CC4CC4)CC3)CC2)ccc1Nc1ncc(C(F)(F)F)c(NCc2ccc(C)cc2N(C)S(C)(=O)=O)n1 [Example 95]	8.70	8.52
COc1cc(N2CCN(CC(=O)N3CCOCC3)CC2)ccc1Nc1ncc(C(F)(F)F)c(NCc2ccc(C)cc2N(C)S(C)(=O)=O)n1 [Example 42]	9.41	8.40
COc1cc(C(=O)N[C@@H]2CCCN(C3CCC3)C2)ccc1Nc1ncc(C(F)(F)F)c(NCc2ccc(C)cc2N(C)S(C)(=O)=O)n1 [Example 86]	9.00	8.52
COc1cc(C(=O)N[C@@H]2CCCN(CC3CC3)C2)ccc1Nc1ncc(C(F)(F)F)c(NCc2ccc(C)cc2N(C)S(C)(=O)=O)n1 [Example 85]	9.00	8.52
COc1cc(C(=O)NC2CCC(NC(C)=O)CC2)ccc1Nc1ncc(C(F)(F)F)c(NCc2ccc(C)cc2N(C)S(C)(=O)=O)n1 (centres unmarked) [Example 48]	9.29	8.40
COc1cc(C(=O)NC2CCN(C3CCCCC3)CC2)ccc1Nc1ncc(C(F)(F)F)c(NCc2ccc(C)cc2N(C)S(C)(=O)=O)n1 [Example 16]	9.72	8.40
COc1cc(C(=O)NC2CCN(C3CCOCC3)CC2)ccc1Nc1ncc(C(F)(F)F)c(NCc2ccc(Cl)cc2N(C)S(C)(=O)=O)n1 [Example 94]	8.70	8.70
COc1cc(C(=O)N[C@H]2CC[C@@H]3[C@@H](CCN3C)C2)ccc1Nc1ncc(C(F)(F)F)c(NCc2ccc(C)cc2N(C)S(C)(=O)=O)n1 [Example 65]	9.17	8.40
COc1cc(C(=O)NC2CCC(N3CCOCC3)CC2)c(C)cc1Nc1ncc(C(F)(F)F)c(NCc2ccc(C)cc2N(C)S(C)(=O)=O)n1 (centres unmarked) [Example 84]	9.00	8.52
COc1cc(C(=O)NC2CCN(C3CCOCC3)CC2)ccc1Nc1ncc(C(F)(F)F)c(NCc2ccc(C)cc2N(C)S(C)(=O)=O)n1 [Example 44]	9.38	8.70
